Laboratory results: patent publication US20260138962A1, “SYNTHESIS OF DERIVATIVES OF SIPH[…] THERAPEUTIC USE THEREOF” (priority 2022, published 2026)
≈ marks a conversion by molar mass, not a printed value. Where “and” joins values, the source holds several entries; their conditions need not be identical. Equal entries are not always repeated.

Columns and labels:
MDCK cells = conditions: all test concentrations, 50.0 to 3.75 μg/mL
[1] = tested on: Influenza A-type virus (strain 108 617); assay: Cytopathic Effect Reduction Assay against Influenza A (CERA-1) in MDCK cells; assay type: cell-based; conditions: for IC50: calculated with GraphPad Prism
[2] = tested on: SARS-CoV-2 Wuhan isolate (wild type); assay: microbe, parasite or virus in culture; assay type: cell-based; conditions: Severe acute respiratory syndrome coronavirus 2, Vero C1008

Compound	toxicity (MDCK cells)	inhibition ([1]; 50.0 μg/mL)	inhibition at 3.75 µg/mL ([1]; Influenza A virus, MDCK, 3.75 μg/mL) [%]	IC50 ([1]; Influenza A virus) [µg/mL]	IC50 ([2]; Wuhan strain, in vitro) [µg/mL]	inhibition at 0.5 µg/mL ([2]; Wuhan, 0.5 μg/ml, Vero E6 cells) [%]	inhibition at 2 µg/mL ([2]; Wuhan, 2 μg/ml, Vero E6 cells) [%]	inhibition at 5 µg/mL ([2]; Wuhan, 5 μg/ml, Vero E6 cells) [%]	inhibition at 16 µg/mL ([2]; Wuhan, 16 μg/ml, Vero E6 cells) [%]	inhibition at 50 µg/mL ([2]; Wuhan, 50 μg/ml, Vero E6 cells) [%]	inhibition at 50 µg/mL ([1]; Influenza A virus, MDCK, 50.0 μg/mL) [%]
CC1=C2C[C@@H]3[C@@H](C)C=CC(=O)[C@@]3(C)C[C@@]2(O)OC1=O [HLS, (4aR,5S,8aS,9aR)-9a-hydroxy-3,5,8a-trimethyl-4a,5,9,9a-tetrahydronaphtho[2,3-b]furan-2,8(4H,8aH)-dione]	no toxicity	> 100% and > 123%	> 30	9.2 (≈ 35.1 µM)	3.03 (≈ 11.6 µM)	25	50	75	100	100	–
NC(=O)c1ncn([C@@H]2O[C@H](CO)[C@@H](O)[C@H]2O)n1 [ribavirin, reference compound]	–	–	–	2.16 (≈ 8.84 µM)	–	–	–	–	–	–	> 105
